Measurements published in ChEMBL document CHEMBL3108730, “Exploring the determinants of trace amine-associated receptor 1's functional selectivity for the stereoisomers of amphetamine and methamphetamine” (J Med Chem, 2014).
The source made the active and inactive calls. The rule behind the calls is not given here.

Columns and labels:
[1] = test system: Trace amine-associated receptor 1 (Mus musculus), Q923Y8 [Y287N]; assay: Activation of mouse TAAR1 transmembrane domain 7 Tyr287(7.39)Asn mutant expressed in HEK293 cells assessed as stimulation of cAMP production at 0.0001 to 100 uM after 1 hr by chemiluminescent assay relative to beta-phenylethylamine; assay type: functional, cell-based
Trace amine-associated receptor 1 (Mus musculus), Q923Y8 [Y287N], sequence (Q923Y8 whole entry Y287N, the tested form may be a part): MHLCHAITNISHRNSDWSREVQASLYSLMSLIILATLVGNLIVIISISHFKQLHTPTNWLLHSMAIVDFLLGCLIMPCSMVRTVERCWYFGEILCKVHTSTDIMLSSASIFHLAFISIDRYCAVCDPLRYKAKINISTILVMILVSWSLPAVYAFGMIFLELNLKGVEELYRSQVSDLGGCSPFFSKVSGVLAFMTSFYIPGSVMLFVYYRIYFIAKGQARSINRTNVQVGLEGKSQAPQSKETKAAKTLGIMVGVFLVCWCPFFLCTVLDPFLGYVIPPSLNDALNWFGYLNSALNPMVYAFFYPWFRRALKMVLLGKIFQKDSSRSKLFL

[2] = test system: Trace amine-associated receptor 1 (Rattus norvegicus), Q923Y9 [N287Y]; assay: Activation of rat TAAR1 transmembrane domain 7 Asn287(7.39)Tyr mutant expressed in HEK293 cells assessed as stimulation of cAMP production at 0.0001 to 100 uM after 1 hr by chemiluminescent assay relative to beta-phenylethylamine; assay type: functional, cell-based
Trace amine-associated receptor 1 (Rattus norvegicus), Q923Y9 [N287Y], sequence (Q923Y9 whole entry N287Y, the tested form may be a part): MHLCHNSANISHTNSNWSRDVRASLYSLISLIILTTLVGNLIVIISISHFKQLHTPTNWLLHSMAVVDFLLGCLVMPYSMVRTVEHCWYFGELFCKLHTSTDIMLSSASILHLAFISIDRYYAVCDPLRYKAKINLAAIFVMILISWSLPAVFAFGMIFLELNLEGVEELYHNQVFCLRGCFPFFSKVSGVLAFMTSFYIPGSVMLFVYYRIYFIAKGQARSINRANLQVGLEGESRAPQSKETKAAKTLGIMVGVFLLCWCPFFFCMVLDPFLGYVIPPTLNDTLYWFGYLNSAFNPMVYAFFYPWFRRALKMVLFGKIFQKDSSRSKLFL

[3] = test system: Trace amine-associated receptor 1 (Mus musculus), Q923Y8 [T268M]; assay: Activation of mouse TAAR1 transmembrane domain 6 Thr268(6.55)Met mutant expressed in HEK293 cells assessed as stimulation of cAMP production at 0.0001 to 100 uM after 1 hr by chemiluminescent assay relative to beta-phenylethylamine; assay type: functional, cell-based
Trace amine-associated receptor 1 (Mus musculus), Q923Y8 [T268M], sequence (Q923Y8 whole entry T268M, the tested form may be a part): as the sequence (Q923Y8 whole entry Y287N, the tested form may be a part) above, with T268M, N287Y counted along it

[4] = test system: Trace amine-associated receptor 1 (Rattus norvegicus), Q923Y9 [M268T]; assay: Activation of rat TAAR1 transmembrane domain 6 Met268(6.55)Thr mutant expressed in HEK293 cells assessed as stimulation of cAMP production at 0.0001 to 100 uM after 1 hr by chemiluminescent assay relative to beta-phenylethylamine; assay type: functional, cell-based
Trace amine-associated receptor 1 (Rattus norvegicus), Q923Y9 [M268T], sequence (Q923Y9 whole entry M268T, the tested form may be a part): as the sequence (Q923Y9 whole entry N287Y, the tested form may be a part) above, with M268T, Y287N counted along it

[5] = target: Trace amine-associated receptor 1 (Mus musculus) (UniProt Q923Y8); assay: Activation of mouse wild type TAAR1 expressed in HEK293 cells assessed as stimulation of cAMP production at 0.0001 to 100 uM after 1 hr by chemiluminescent assay relative to beta-phenylethylamine; assay type: functional, cell-based
Trace amine-associated receptor 1 (Mus musculus), sequence (Q923Y8 whole entry): as the sequence (Q923Y8 whole entry Y287N, the tested form may be a part) above, with N287Y counted along it

[6] = target: Trace amine-associated receptor 1 (Rattus norvegicus) (UniProt Q923Y9); assay: Activation of rat wild type TAAR1 expressed in HEK293 cells assessed as stimulation of cAMP production at 0.0001 to 100 uM after 1 hr by chemiluminescent assay relative to beta-phenylethylamine; assay type: functional, cell-based
Trace amine-associated receptor 1 (Rattus norvegicus), sequence (Q923Y9 whole entry, the tested form may be a part): as the sequence (Q923Y9 whole entry N287Y, the tested form may be a part) above, with Y287N counted along it

[7] = target: Trace amine-associated receptor 1 (Mus musculus, UniProt Q923Y8, Y287N); assay: Activation of mouse TAAR1 transmembrane domain 7 Tyr287(7.39)Asn mutant expressed in HEK293 cells assessed as stimulation of cAMP production after 1 hr by chemiluminescent assay; assay type: functional, cell-based
Trace amine-associated receptor 1 (Mus musculus, UniProt Q923Y8, Y287N), sequence (Q923Y8 whole entry Y287N, the tested form may be a part): as the sequence (Q923Y8 whole entry Y287N, the tested form may be a part) above

[8] = target: Trace amine-associated receptor 1 (Mus musculus, UniProt Q923Y8, T268M); assay: Activation of mouse TAAR1 transmembrane domain 6 Thr268(6.55)Met mutant expressed in HEK293 cells assessed as stimulation of cAMP production after 1 hr by chemiluminescent assay; assay type: functional, cell-based
Trace amine-associated receptor 1 (Mus musculus, UniProt Q923Y8, T268M), sequence (Q923Y8 whole entry T268M, the tested form may be a part): as the sequence (Q923Y8 whole entry Y287N, the tested form may be a part) above, with T268M, N287Y counted along it

[9] = target: Trace amine-associated receptor 1 (Mus musculus, UniProt Q923Y8); assay: Activation of mouse wild type TAAR1 expressed in HEK293 cells assessed as stimulation of cAMP production after 1 hr by chemiluminescent assay; assay type: functional, cell-based
Trace amine-associated receptor 1 (Mus musculus, UniProt Q923Y8), sequence (Q923Y8 whole entry): as the sequence (Q923Y8 whole entry Y287N, the tested form may be a part) above, with N287Y counted along it

[10] = test system: Trace amine-associated receptor 1 (Mus musculus), Q923Y8 [D102A]; assay: Activation of mouse TAAR1 Asp102(3.32)Ala mutant expressed in HEK293 cells assessed as stimulation of cAMP production at 0.0001 to 100 uM after 1 hr by chemiluminescent assay; assay type: functional, cell-based
Trace amine-associated receptor 1 (Mus musculus), Q923Y8 [D102A], sequence (Q923Y8 whole entry D102A): as the sequence (Q923Y8 whole entry Y287N, the tested form may be a part) above, with D102A, N287Y counted along it

[11] = test system: Trace amine-associated receptor 1 (Rattus norvegicus), Q923Y9 [D102A]; assay: Activation of rat TAAR1 Asp102(3.32)Ala mutant expressed in HEK293 cells assessed as stimulation of cAMP production at 0.0001 to 100 uM after 1 hr by chemiluminescent assay relative to control; assay type: functional, cell-based
Trace amine-associated receptor 1 (Rattus norvegicus), Q923Y9 [D102A], sequence (Q923Y9 whole entry D102A, the tested form may be a part): as the sequence (Q923Y9 whole entry N287Y, the tested form may be a part) above, with D102A, Y287N counted along it

[12] = target: Trace amine-associated receptor 1 (Rattus norvegicus, UniProt Q923Y9, N287Y); assay: Activation of rat TAAR1 transmembrane domain 7 Asn287(7.39)Tyr mutant expressed in HEK293 cells assessed as stimulation of cAMP production after 1 hr by chemiluminescent assay; assay type: functional, cell-based
Trace amine-associated receptor 1 (Rattus norvegicus, UniProt Q923Y9, N287Y), sequence (Q923Y9 whole entry N287Y, the tested form may be a part): as the sequence (Q923Y9 whole entry N287Y, the tested form may be a part) above

[13] = target: Trace amine-associated receptor 1 (Rattus norvegicus, UniProt Q923Y9, M268T); assay: Activation of rat TAAR1 transmembrane domain 6 Met268(6.55)Thr mutant expressed in HEK293 cells assessed as stimulation of cAMP production after 1 hr by chemiluminescent assay; assay type: functional, cell-based
Trace amine-associated receptor 1 (Rattus norvegicus, UniProt Q923Y9, M268T), sequence (Q923Y9 whole entry M268T, the tested form may be a part): as the sequence (Q923Y9 whole entry N287Y, the tested form may be a part) above, with M268T, Y287N counted along it

[14] = target: Trace amine-associated receptor 1 (Rattus norvegicus, UniProt Q923Y9); assay: Activation of rat wild type TAAR1 expressed in HEK293 cells assessed as stimulation of cAMP production after 1 hr by chemiluminescent assay; assay type: functional, cell-based
Trace amine-associated receptor 1 (Rattus norvegicus, UniProt Q923Y9), sequence (Q923Y9 whole entry, the tested form may be a part): as the sequence (Q923Y9 whole entry N287Y, the tested form may be a part) above, with Y287N counted along it

[15] = test system: Trace amine-associated receptor 1 (Mus musculus), Q923Y8 [Y287N]; assay: Activation of mouse TAAR1 transmembrane domain 7 Tyr287(7.39)Asn mutant expressed in HEK293 cells assessed as stimulation of cAMP production at 0.0001 to 100 uM after 1 hr by chemiluminescent assay relative to control; assay type: functional, cell-based
[16] = test system: Trace amine-associated receptor 1 (Rattus norvegicus), Q923Y9 [N287Y]; assay: Activation of rat TAAR1 transmembrane domain 7 Asn287(7.39)Tyr mutant expressed in HEK293 cells assessed as stimulation of cAMP production at 0.0001 to 100 uM after 1 hr by chemiluminescent assay relative to control; assay type: functional, cell-based
[17] = test system: Trace amine-associated receptor 1 (Mus musculus), Q923Y8 [T268M]; assay: Activation of mouse TAAR1 transmembrane domain 6 Thr268(6.55)Met mutant expressed in HEK293 cells assessed as stimulation of cAMP production at 0.0001 to 100 uM after 1 hr by chemiluminescent assay relative to control; assay type: functional, cell-based
[18] = test system: Trace amine-associated receptor 1 (Rattus norvegicus), Q923Y9 [M268T]; assay: Activation of rat TAAR1 transmembrane domain 6 Met268(6.55)Thr mutant expressed in HEK293 cells assessed as stimulation of cAMP production at 0.0001 to 100 uM after 1 hr by chemiluminescent assay relative to control; assay type: functional, cell-based
[19] = target: Trace amine-associated receptor 1 (Mus musculus) (UniProt Q923Y8); assay: Activation of mouse wild type TAAR1 expressed in HEK293 cells assessed as stimulation of cAMP production at 0.0001 to 100 uM after 1 hr by chemiluminescent assay relative to control; assay type: functional, cell-based
[20] = target: Trace amine-associated receptor 1 (Rattus norvegicus) (UniProt Q923Y9); assay: Activation of rat wild type TAAR1 expressed in HEK293 cells assessed as stimulation of cAMP production at 0.0001 to 100 uM after 1 hr by chemiluminescent assay relative to control; assay type: functional, cell-based
[21] = species on record: Rattus norvegicus; assay: Selectivity ratio of EC50 for rat TAAR1 transmembrane domain 6 Met268(6.55)Thr mutant to EC50 for rat wild type TAAR1
[22] = species on record: Mus musculus; assay: Selectivity ratio of EC50 for mouse wild type TAAR1 to EC50 for mouse TAAR1 transmembrane domain 6 Thr268(6.55)Met mutant

Row | Compound | Emax [1] [%] | Emax [2] [%] | Emax [3] [%] | Emax [4] [%] | Emax [5] [%] | Emax [6] [%] | EC50 [7] [nM] | EC50 [8] [nM] | EC50 [9] [nM] | Activity [10] | EC50 [12] [nM] | EC50 [13] [nM] | EC50 [14] [nM] | Ratio EC50 [21] | Ratio EC50 [22] | also measured
1 | C[C@H](N)Cc1ccccc1 [DEXTROAMPHETAMINE] | 93 | 103 | 98 | 93.8 | 99.8 | 102 | 219 | 3.98 | 84.6 | inactive | – | – | – | – | – | –
2 | NCCc1ccc(O)cc1 | – | – | – | – | – | – | – | – | – | inactive | – | – | – | – | – | Activity [11]: inactive
3 | NCCc1ccccc1 [PHENETHYLAMINE] | – | – | – | – | – | – | 58.6 | 47.3 | 189 | inactive | 171 | 261 | 40.3 | – | – | Emax [15]: 95.9%; Emax [16]: 97.2%; Emax [17]: 97.6%; Emax [18]: 97.8%; Emax [19]: 95%; Emax [20]: 96.4%
4 | CN[C@H](C)Cc1ccccc1 | 89.6 | 93.3 | 91.5 | 77.6 | 96.9 | 82.5 | 1600 | 126 | 843 | inactive | 330 | 1110 | – | 10 | 10 | –
5 | CN[C@@H](C)Cc1ccccc1 [METHAMPHETAMINE] | 92.2 | 101 | 94 | 94.3 | 98 | 94.3 | 1820 | 17.8 | 279 | inactive | 202 | 2040 | 133 | 10 | 10 | –
6 | C[C@@H](N)Cc1ccccc1 [LEVAMFETAMINE] | 89.4 | 95.8 | 90.5 | 91.6 | 93.6 | 86.7 | 105 | 121 | – | inactive | – | – | – | – | – | –
